PubChem BioAssay AID256 (DTP/NCI, 2004)
Inconclusive results and toxic doses are left out.

Tested on: CD2F1 mice, L1210 leukemia ip, survival T/C
Experiment: NCI In Vivo Anticancer Drug Screen. Data for tumor model L1210 Leukemia (intraperitoneal) in CD2F1 (CDF1) mice
Settings: higher = longer survival
Summary of the method: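 Implant tumor; dose compound or vehicle; measure endpoint in both groups; report treated divided by control.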

[1] = endpoint: mean survival time, dose: 100.0 mg/kg/injection, schedule: Q04DX003 (ip), vehicle: saline with Tween-80
[2] = endpoint: mean survival time, dose: 200.0 mg/kg/injection, schedule: Q04DX003 (ip), vehicle: saline with Tween-80
[3] = endpoint: mean survival time, dose: 400.0 mg/kg/injection, schedule: Q04DX003 (ip), vehicle: saline with Tween-80
[4] = endpoint: mean survival time, dose: 100.0 mg/kg/injection, schedule: Q01DX009 (ip), vehicle: saline
[5] = endpoint: mean survival time, dose: 200.0 mg/kg/injection, schedule: Q01DX009 (ip), vehicle: saline
[6] = endpoint: mean survival time, dose: 100.0 mg/kg/injection, schedule: Q01DX009 (ip), vehicle: saline with Tween-80
[7] = endpoint: mean survival time, dose: 200.0 mg/kg/injection, schedule: Q01DX009 (ip), vehicle: saline with Tween-80
[8] = endpoint: mean survival time, dose: 400.0 mg/kg/injection, schedule: Q01DX009 (ip), vehicle: saline with Tween-80

## O=C1OCC/C1=C\c1cccc2ccccc12
[1]
  T/C: 102 % of control
[2]
  T/C: 96 % of control
[3]
  T/C: 97 % of control

## CCN(CC)CCOCCO
[4]
  T/C: 102 % of control
[5]
  T/C: 96 % of control

## O=C(O)C1C2CC3OC(=O)C1C3C2O (stereo unspecified)
[6]
  T/C: 91 % of control
[7]
  T/C: 93 % of control
[8]
  T/C: 96 % of control

## O=c1[nH]cnc2c1nc(Br)n2C1OC(CO)C(O)C1O (stereo unspecified)
endpoint: mean survival time, dose: 12.5 mg/kg/injection, schedule: Q01DX005 (ip), vehicle: Klucel (hydroxypropylcellulose) (HPC)
  T/C: 91 % of control
endpoint: mean survival time, dose: 25.0 mg/kg/injection, schedule: Q01DX005 (ip), vehicle: Klucel (hydroxypropylcellulose) (HPC)
  T/C: 89 % of control
endpoint: mean survival time, dose: 50.0 mg/kg/injection, schedule: Q01DX005 (ip), vehicle: Klucel (hydroxypropylcellulose) (HPC)
  T/C: 93 % of control
endpoint: mean survival time, dose: 100.0 mg/kg/injection, schedule: Q01DX005 (ip), vehicle: Klucel (hydroxypropylcellulose) (HPC)
  T/C: 88 % of control
endpoint: mean survival time, dose: 200.0 mg/kg/injection, schedule: Q01DX005 (ip), vehicle: Klucel (hydroxypropylcellulose) (HPC)
  T/C: 89 % of control

## CN1CCN(C(=O)Nc2ccc(N=Nc3ccccc3)cc2)CC1
endpoint: mean survival time, dose: 25.0 mg/kg/injection, schedule: Q04DX003 (ip), vehicle: saline with Tween-80
  T/C: 95 % of control
endpoint: mean survival time, dose: 50.0 mg/kg/injection, schedule: Q04DX003 (ip), vehicle: saline with Tween-80
  T/C: 95 % of control
[1]
  T/C: 88 % of control

## O=C1C=CN(C2OC(COC(=O)c3ccccc3)C(O)C2O)C(=O)C1 (stereo unspecified)
endpoint: median survival time, dose: 67.0 mg/kg/injection, schedule: Q01DX009 (ip), vehicle: saline + Tween-80 + alcohol
  T/C: 168 % of control
endpoint: median survival time, dose: 100.0 mg/kg/injection, schedule: Q01DX009 (ip), vehicle: saline + Tween-80 + alcohol
  T/C: 169 % of control
endpoint: median survival time, dose: 150.0 mg/kg/injection, schedule: Q01DX009 (ip), vehicle: saline + Tween-80 + alcohol
  T/C: 165 % of control
endpoint: median survival time, dose: 225.0 mg/kg/injection, schedule: Q01DX009 (ip), vehicle: saline + Tween-80 + alcohol
  T/C: 161 % of control

## O=C(O)c1nn2c(=O)c3cccc4cccc(c43)c2c1C(=O)O
endpoint: mean survival time, dose: 25.0 mg/kg/injection, schedule: Q04DX002 (ip), vehicle: saline with Tween-80
  T/C: 95 % of control
endpoint: mean survival time, dose: 50.0 mg/kg/injection, schedule: Q04DX002 (ip), vehicle: saline with Tween-80
  T/C: 98 % of control
endpoint: mean survival time, dose: 100.0 mg/kg/injection, schedule: Q04DX002 (ip), vehicle: saline with Tween-80
  T/C: 95 % of control
endpoint: mean survival time, dose: 200.0 mg/kg/injection, schedule: Q04DX002 (ip), vehicle: saline with Tween-80
  T/C: 95 % of control

## CC(C)(C)c1cccc(OS(=O)(=O)c2cccc([N+](=O)[O-])c2)c1
[6]
  T/C: 94 % of control
[7]
  T/C: 94 % of control
[8]
  T/C: 94 % of control

## O
endpoint: mean survival time, dose: 75.0 mg/kg/injection, schedule: Q01DX001 (ip), vehicle: saline
  T/C: 96 % of control
[4]
  T/C: 88 % of control
[5]
  T/C: 100 % of control
endpoint: mean survival time, dose: 400.0 mg/kg/injection, schedule: Q01DX009 (ip), vehicle: saline
  T/C: 96 % of control

## Cc1ccc(S(=O)(=O)N/N=C/c2ccncc2)cc1
endpoint: mean survival time, dose: 25.0 mg/kg/injection, schedule: Q01DX009 (ip), vehicle: Klucel (hydroxypropylcellulose) (HPC)
  T/C: 104 % of control
endpoint: mean survival time, dose: 50.0 mg/kg/injection, schedule: Q01DX009 (ip), vehicle: Klucel (hydroxypropylcellulose) (HPC)
  T/C: 105 % of control
endpoint: mean survival time, dose: 100.0 mg/kg/injection, schedule: Q01DX009 (ip), vehicle: Klucel (hydroxypropylcellulose) (HPC)
  T/C: 98 % of control
endpoint: mean survival time, dose: 200.0 mg/kg/injection, schedule: Q01DX009 (ip), vehicle: Klucel (hydroxypropylcellulose) (HPC)
  T/C: 98 % of control

## Nc1nc(N)c(-c2ccc(Cl)cc2)c(/C=C/C=C/c2ccc([N+](=O)[O-])cc2)n1
endpoint: mean survival time, dose: 50.0 mg/kg/injection, schedule: Q01DX001 (ip), vehicle: saline with Tween-80
  T/C: 97 % of control
endpoint: mean survival time, dose: 100.0 mg/kg/injection, schedule: Q01DX001 (ip), vehicle: saline with Tween-80
  T/C: 92 % of control
endpoint: mean survival time, dose: 200.0 mg/kg/injection, schedule: Q01DX001 (ip), vehicle: saline with Tween-80
  T/C: 101 % of control

## CC(=O)C1CCC2C3=CC=C4CC(OC(=O)c5ccccc5)CCC4(C)C3CCC12C (stereo unspecified)
[1]
  T/C: 101 % of control
[2]
  T/C: 98 % of control
[3]
  T/C: 102 % of control
